This note sets out measurements from patent US20050152995A1, “Methods and compositions for promoting axon regeneration and cell replacement therapy” (priority 2003, published 2005).

Data set [1] concerns severed optic nerve (astrocytes, RGC axons). Type of data set: in vivo, mouse. As for the experimental part: To evaluate the effects of lithium used simultaneously with astrotoxin in optic nerve regeneration in adult mice, an on optic nerve crush was performed in adult mice. Immediately after the optic nerve crush, a piece of gelform soaked in astrotoxin solution or PBS was placed against the crush site. Thereafter, mice were divided into two groups: one group received a diet containing lithium, and the other received a control diet.
Mice were sacrificed on day 8 after the nerve crush to examine axon regeneration.
Surgical procedure: All experimental procedures and use of animals were approved by Animal Care and Use Committee in the Schepens Eye Research Institute and adhered to the ARVO statement for the Use of Animals in Ophthalmic and Vision Research. Adult C57BL/6J mice were anesthetized with a mixture of ketamine (12.5 mg/ml, Sigma) and xylazine (2.5 mg/ml, Sigma) (5 μ/g). Optic nerve was exposed intraorbitally and crushed for 3 seconds using fine forceps. Immediately after nerve crush, a piece of gelfoam soaked with L-α-aminoadipate (10 mg/ml; Sigma) was placed against the crushed site. Gelfoam soaked with phosphate buffered saline (PBS) was used as control. To ensure continued delivery of astrotoxin, the gelfoam was replaced every 3 days post-injury (DPI). Following recovery from the optic nerve surgery, mice were divided into two groups: one group received a diet supplemented with lithium ([…], Bio-Serv), and the other group received a control diet. Mice were sacrificed on 8 DPI, and the mouse serum was collected to determine serum lithium concentration (Medtox Laboratories Inc).
(§1) Retinal histology and immunohistochemistry: The eyeball and optic nerve were dissected out, fixed in 4% paraformaldehyde for 1 hr, cryoprotected and embedded in O.T.C. The tissues were then cryosectioned at 12 μm and subjected to cresyl violet staining or immunohistochemistry. For immunofluorescence labeling, tissue sections were reacted with Cy-3 conjugated mouse anti-GFAP (1:1000, Sigma) or rabbit anti-GAP-43 (1:200, Chemicon). The signal of GAP-43 was then visualized by FITC-conjugated goat anti-rabbit IgG (1:250, Vector Lab.). To detect the expression of Bcl-2 protein, the eyeballs were dissected out and embedded without fixation. Before immunostaining, retinal sections were fixed with acetone that was stored at −20° C. for 15 min and incubated with Bcl-2 antibody (1:50, Transduction lab) followed by reaction with biotinylated anti-mouse IgG (1:100, Vector Lab.) and DTAF-conjugated Streptavidin (1:100, Jackson Lab). The sections were then counter-stained with DAPI (1:150, Sigma) to reveal cell nuclei before they were mounted with Vectashield (Vector Lab) and examined under epifluorescence microscope.
Quantitation of Axon Regeneration: Following staining with anti-GAP-43 antibody, the longest distance of axon regeneration axon was measured from the crushed site in optic nerve sections. At least 4 sections were sampled from each optic nerve, and the measured lengths of regenerating axons were averaged. Statistical significance was determined by One-way ANOVA and Tukey-Kramer multiple comparison tests.

Data set [2] has the same test system. It is filed as in vivo, mouse. Conditions: for axonal regeneration after optic nerve crush: n=5. How it is done: Optic nerve crush was performed in Bcl-2tg (14) and wild-type littermate mouse pups, prior to the knowledge of genotypes. Regeneration was assessed and corroborated by three labeling methods: anterograde axon tracing, immunofluorescent staining, and retrograde labeling of RGCs that regenerated their axons. […].
To assess the functional significance of astrocyte maturation in optic nerve regeneration, we treated adult (2-3-month-old) wild-type and Bcl-2tg mice with astrotoxin (L-alpha-aminoadipate), which selectively kills astrocytes and has minimal effects on surrounding neurons and myelin (25, 26). Immediately after optic nerve crush, gelform soaked in L-alpha-aminoadipate solution (10 mg/ml in PBS, Sigma) or PBS was placed against the crush site. […] Regenerating axons extended exclusively into the GFAP-negative area and stopped abruptly where GFAP staining reappeared (FIG. 4B, D).
To quantify axonal regeneration, we used electron microscopy to examine optic nerve sections of adult wild-type and Bcl-2tg mice treated with astrotoxin or PBS. Degenerating myelin and tissue debris were found in sections of all groups (FIG. 4I, J). In treated Bcl-2tg mice (n=5), a large number of regenerating axons were seen 0.5 mm posterior to the crush site, an area devoid of astrocytes and their cellular processes (FIG. 4J). […] In contrast, in other three groups, few axons were present in optic nerve sections if they were collected at 0.5 mm posterior to the crush (n=3/group). Regenerating axons were 20-fold more abundant in astrotoxin-treated Bcl-2tg mice than in PBS-treated wild-type mice (P<0.001) (FIG. 4K). Thus, elimination of mature astrocytes promoted robust optic nerve regeneration in adult Bcl-2tg mice.

The next data set deals with Bcl-2.
Text: as §1

For data set [3] the following is noted: mice on lithium-containing diet, n=9, 8 DPI.
Procedure: To determine whether lithium induces the expression of Bcl-2 in adult retinal neurons in vivo, we fed mice with food chow containing lithium.
Adult C57BL/6J mice were anesthetized with a mixture of ketamine (12.5 mg/ml, Sigma) and xylazine (2.5 mg/ml, Sigma) (5 μ/g). […] Mice were sacrificed on 8 DPI, and the mouse serum was collected to determine serum lithium concentration (Medtox Laboratories Inc).
The subject of data set [4] is retinal ganglion cells (RGCs). As for the experimental part: The neuroprotective effect of lithium-containing diet on the survival of fluorogold (FG)-labeled RGCs was assessed.
After sacrificing, whole-mount retinas were prepared. At least 12 non-overlapping areas of the retina were selected randomly and photographed. Surviving RGCs that were labeled with FluoroGold were counted, and the density of survival RGCs was determined.

The subject of data set [5] is inner limiting membrane (ILM) of the retina. Put plainly: Retinal transplantation into collagenase-treated wild-type retinas. The conditions noted are these: collagenase 100 U/ml, n=4. It is filed as in vivo, mouse. As for the experimental part:
To distinguish implanted cells and their cellular processes from the host environment, we used retinas from mice expressing an enhanced green fluorescent protein (EGFP) transgene driven by a chicken b-actin promoter and cytomegalovirus enhancer (24′). Suspensions of retinal cells from postnatal day 0 (P0) EGFP mice were injected into the subretinal space of adult wild-type or GFAP−/−Vim−/− hosts. […] To confirm that this failure of neural integration into the wild-type hosts was not a result of the site of transplantation, we injected cells into the vitreous cavity (n=4) (FIG. 6B). […] Few neurons migrated and extended neurites into the damaged retinal area but not beyond (FIG. 1B).
To exclude the possibility that this change in the property of the ILM in GFAP−/−Vim−/− mice affected the fate of retinal transplants, we treated wild-type retinas with collagenase (100 U/ml) to break down the ILM (n=4). By comparing with untreated wild-type hosts (n=3), we found no difference in graft cell migration and neurite extension into the retinas of collagenase treated and untreated mice (data not shown).

Setting [6] is: adult wild-type mice, day 8 after nerve crush.

Where two headings read alike, the source gives them in different places.

`N[C@@H](CCCC(=O)O)C(=O)O` [astrotoxin, L-alpha-aminoadipate]: the “GFAP expression along the crushed optic nerve” value in data set [1] (setting [6]) was “a region devoid of immunorective astrocytes (GFAP-negative) was generated”. Further, the “axon regeneration (GAP-43 labeling)” value in data set [1] (setting [6]) was “no sign of regeneration”. For the same compound, the “length of regenerating axons extending from the crushed site” value in data set [1] (anti-GAP-43 immunostaining, day 8 after nerve crush) was 50 μm. In data set [2] (adult Bcl-2tg mice, electron microscopy, 0.5 mm posterior to the crush, P<0.001), the “abundance of regenerating axons relative to PBS-treated wild-type mice” value was 20 fold. Moreover, the figures for the “axonal regeneration after optic nerve crush” value in data set [2] (adult Bcl-2tg mice) and in data set [2] (adult wild-type mice) were “robust regeneration” and “a few axons sprouted past the lesion site”, respectively. The “GFAP immunofluorescence staining in the optic nerve” value in data set [2] (adult wild-type and Bcl-2tg mice, 10 mg/ml in PBS on gelform at crush site) is recorded as “created a GFAP-negative area”. Also, in data set [2] (adult wild-type and Bcl-2tg mice, immunofluorescence staining), the “effect on myelin and neuronal processes” value is on record as “no effect”.

With `O=C([O-])[O-].[Li+].[Li+]` [lithium, lithium carbonate], in data set [1] (mouse, in vivo), the “GFAP expression along the crushed optic nerve” value is recorded as “detected along the entire nerve”, the “axon regeneration (GAP-43 labeling)” value is given as “no sign of regeneration” and the “length of regenerating axons extending from the crushed site” value worked out at 80 μm. Further, the “Bcl-2 mRNA in retina” value in the data set with Bcl-2 (RT-PCR, lithium-containing diet vs regular diet) is given as “strong induction”. In the data set with Bcl-2 (immunostaining, lithium-containing diet), the “Bcl-2 protein expression in retina” value is “detected in the ganglion cell layer”. Besides, the “serum concentration of lithium” value in data set [3] worked out at 0.80±0.15 mEq/l. Also, in data set [4] (following optic nerve crush, not significant vs control (P>0.05)), the “number of surviving RGCs” value is 404 /mm^2. Also, the “density of FG-labeled RGCs” value in data set [4] (normal retina) is listed as 2134 /mm^2.

collagenase: in data set [5], the “graft cell migration and neurite extension into the retina vs untreated hosts” value was “no difference”.
